Measured values from patent US20110098309A1, “METHODS OF INHIBITING THE FORMATION OF AMYLOID-BETA DIFFUSABLE LIGANDS USING ACYLHYDRAZIDE COMPOUNDS” (priority 2007, published 2011).

Molecular target: Aβ1-42 (Homo sapiens, UniProt P05067)
Test: FRET assay of Aβ1-42 oligomer (ADDL) assembly inhibition
Format: biochemical
Conditions: 0.2 μM FITC-Aβ(1-42) and 0.8 μM Aβ(1-42), 37° C., six concentrations from about 10 μM to about 0.03 μM
Excerpt: Fluorescence (or Förster) Resonance Energy Transfer (FRET) is a distance-dependent, non-radiative transfer of energy in which the de-excitation of one fluorophore (donor) is coupled to excitation of another fluorophore (acceptor). FRET occurs if (1) the quantum of energy emitted by a donor fluorophore corresponds to an acceptor fluorophore's excitation energy, (2) the orientations of donor and acceptor transition dipoles are nearly parallel and (3) the donor fluorescent emission spectrum overlaps the acceptor absorption spectrum.
In this assay, assembly of Aβ1-42 oligomer formation is monitored by FRET using N-terminal conjugates of fluorescein-Aβ1-42 as both the donor and acceptor fluorophore (fluorescein-fluorescein Ro˜45 Å). […] Inhibition of Aβ1-42 assembly is observed as the absence or attenuation of fluorescein quenching.
FRET and FP assays are performed in 384-well Corning Non-Binding Surface, black, opaque microtiter plates, and the assay buffer consists of 25 mM MOPS-Tris (pH 8.0) with 100 mM MgCl2. The assay volume, containing 0.2 μM FITC-Aβ(1-42) and 0.8 μM Aβ(1-42), is 50 μl and the temperature is 37° C. […] Kinetic traces are collected by recording fluorescence intensity and polarization readings every five minutes over about a three hour time course. […] Positive control reactions contain all buffer components in the absence of added small molecule or antibody reagents. To test for ADDL assembly inhibition, the compound was incubated with the peptide mixture at six concentrations from about 10 μM decreasing to about 0.03 μM.

Aβ1-42, sequence (P05067 672-713 limits assumed): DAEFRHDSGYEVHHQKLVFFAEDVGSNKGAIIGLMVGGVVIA

| Compound | IC50 [µM] |
| --- | --- |
| O=C(N/N=C/c1ccc2ccccc2c1O)c1ccccc1O [Compound 72, 2-hydroxy-N′-((1-hydroxy-naphthalen-2-yl)methylene)benzohydrazide] | 10.4 |
| O=C(N/N=C/c1cccc(F)c1O)c1ccccc1O [Compound 74, N′-(3-fluoro-2-hydroxy-benzylidene)-2-hydroxy-benzohydrazide] | 10.9 |
| CCOC(=O)c1c(C)oc2cc(Br)c(O)c(/C=N/NC(=O)c3ccccc3O)c12 [Compound 77, ethyl 6-bromo-5-hydroxy-4-((2-(2-hydroxybenzoyl)hydrazono)methyl)-2-methyl-benzofuran-3-carboxylate] | 11.6 |
| COc1ccc(O)c(/C=N/NC(=O)c2cc(-c3ccc4c(c3)OCO4)n[nH]2)c1 [Compound 78, 3-(benzo[d][1,3]dioxol-5-yl)-N′-(2-hydroxy-5-methoxybenzylidene)-1H-pyrazole-5-carbohydrazide] | 11.6 |
| C/C(=N\NC(=O)c1ccccc1O)c1ccc(C)cc1 [Compound 79, 2-hydroxy-N′-(1-p-tolylethylidene) benzohydrazide] | 13.3 |
| CCN(CC)c1ccc(/C=N/NC(=O)c2ccccc2O)c(O)c1 [Compound 80, N'-(4-(diethylamino)-2-hydroxy-benzylidene)-2-hydroxy-benzohydrazide] | 14.4 |
| O=C(N/N=C/c1cccc(O)c1O)c1ccccc1O [Compound 86, N′-(2,3-dihydroxy-benzylidene)-2-hydroxy-benzohydrazide] | 17.4 |
| O=C(N/N=C/c1ccc(N2CCOCC2)cc1O)c1ccccc1O [Compound 87, 2-hydroxy-N′-(2-hydroxy-4-morpholino-benzylidene)-benzohydrazide] | 18.3 |
| O=C(N/N=C/c1oc2ccc([N+](=O)[O-])cc2c1O)c1ccccc1O [Compound 88, 2-hydroxy-N′-((3-hydroxy-5-nitro-benzofuran-2-yl)methylene) benzohydrazide] | 20.4 |
| O=C(N/N=C/c1ccc(O)cc1O)c1ccccc1O [Compound 90, N′-(2,4-dihydroxybenzylidene)-2-hydroxy-benzohydrazide] | 21.4 |
| COc1cc(Cl)cc(/C=N/NC(=O)c2ccccc2O)c1O [Compound 91, N′-(5-chloro-2-hydroxy-3-methoxy-benzylidene)-2-hydroxy-benzohydrazide] | 22.8 |
| Cc1csc(C(=O)N/N=C/c2cc(Cl)ccc2O)c1Cl [Compound 92, 3-chloro-N′-(5-chloro-2-hydroxybenzylidene)-4-methylthiophene-2-carbohydrazide] | 23.7 |
| Nc1ccc(Cl)cc1/C=N/NC(=O)c1ccccc1N [Compound 93, 2-amino-N′-(2-amino-5-chlorobenzylidene)benzohydrazide] | 23.9 |
| COc1cccc(/C=N/NC(=O)c2ccccc2O)c1O [Compound 94, 2-hydroxy-N′-(2-hydroxy-3-methoxybenzylidene)benzohydrazide] | 24.9 |
| Cc1cccc(/C=N/NC(=O)c2ccccc2O)c1O [Compound 96, 2-hydroxy-N′-(2-hydroxy-3-methylbenzylidene)benzohydrazide] | 28.6 |
| Cc1cc(C(=O)N/N=C/c2c(O)ccc3ccccc23)[nH]n1 [Compound 97, N′-((2-hydroxynaphthalen-1-yl)methylene)-3-methyl-1H-pyrazole-5-carbohydrazide] | 30.6 |
| O=C(N/N=C/c1cc([N+](=O)[O-])ccc1O)c1ccccc1O [Compound 99, 2-hydroxy-N′-(2-hydroxy-5-nitrobenzylidene)benzohydrazide] | 32.5 |
| COc1ccc(O)c(/C=N/NC(=O)c2ccccc2NS(C)(=O)=O)c1 [Compound 100, N-(2-(2-(2-hydroxy-5-methoxybenzylidene)hydrazinecarbonyl)phenyl)methanesulfonamide] | 33.2 |
| O=C(N/N=C/c1cc(F)cc(F)c1O)c1ccccc1O [Compound 101, N′-(3,5-difluoro-2-hydroxybenzylidene)-2-hydroxybenzohydrazide] | 33.4 |
| O=C(N/N=C(/c1cc(Cl)ccc1O)C(F)(F)F)c1ccccc1O [Compound 102, N′-(1-(5-chloro-2-hydroxyphenyl)-2,2,2-trifluoroethylidene)-2-hydroxybenzohydrazide] | 34 |
| O=C(N/N=C/c1c(O)ccc2ccccc12)c1cc(C2CC2)n[nH]1 [Compound 103, 3-cyclopropyl-N′-((2-hydroxynaphthalen-1-yl)methylene)-1H-pyrazole-5-carbohydrazide] | 34.5 |
| CCOc1cccc(/C=N/NC(=O)c2ccccc2O)c1O [Compound 106, N′-(3-ethoxy-2-hydroxybenzylidene)-2-hydroxybenzohydrazide] | 39.2 |
| COc1ccc(O)c(/C=N/NC(=O)c2cc(-c3ccc(Cl)s3)n[nH]2)c1 [Compound 107, 3-(5-chlorothiophen-2-yl)-N′-(2-hydroxy-5-methoxybenzylidene)-1H-pyrazole-5-carbohydrazide] | 40.1 |
| O=C(N/N=C/c1cc(Cl)cc(Br)c1O)c1ccccc1O [Compound 108, N′-(3-bromo-5-chloro-2-hydroxybenzylidene)-2-hydroxybenzohydrazide] | 41.7 |
| COc1cc(Br)c(O)c(/C=N/NC(=O)c2ccccc2O)c1 [Compound 109, N′-(3-bromo-2-hydroxy-5-methoxybenzylidene)-2-hydroxybenzohydrazide] | 42 |
| Cc1nnsc1C(=O)N/N=C/c1cc(Cl)ccc1O [Compound 111, N′-(5-chloro-2-hydroxybenzylidene)-4-methyl-1,2,3-thiadiazole-5-carbohydrazide] | 42.9 |
| C/C(=N\NC(=O)c1cc(C)n[nH]1)c1ccccc1O [Compound 112, N′-(1-(2-hydroxyphenyl)ethylidene)-3-methyl-1H-pyrazole-5-carbohydrazide] | 45.4 |
| O=C(N/N=C/c1cc(Cl)ccc1NS(=O)(=O)c1ccc(F)cc1F)c1ccccc1O [Compound 114, N-(4-chloro-2-((2-(2-hydroxybenzoyl)hydrazono)methyl)phenyl)-2,4-difluorobenzenesulfonamide] | 46.7 |
| O=C(N/N=C/c1c(O)ccc2ccccc12)c1ccc(O)cc1O [Compound 115, 2,4-dihydroxy-N′-((2-hydroxynaphthalen-1-yl)methylene)benzohydrazide] | 47.6 |
| Cc1ccc(/C=N/NC(=O)c2ccc3c(c2)OCO3)c(O)c1 [Compound 116, N′-(2-hydroxy-4-methylbenzylidene)benzo[d][1,3]dioxole-5-carbohydrazide] | 50 |

More lines, now with the values ahead:

| IC50 [µM] | Compound |
| --- | --- |
| 10.4 | COc1ccc(O)c(/C=N/NC(=O)c2cc(C)ccc2O)c1 [Compound 73, 2-hydroxy-N′-(2-hydroxy-5-methoxy-benzylidene)-5-methyl-benzohydrazide] |
| 10.9 | COc1ccc(O)c(/C=N/NC(=O)c2cc(F)ccc2O)c1 [Compound 75, 5-fluoro-2-hydroxy-N′-(2-hydroxy-5-methoxy-benzylidene)benzohydrazide] |
| 11.1 | COc1ccc(C(=O)N/N=C/c2cc(OC)ccc2O)c(O)c1 [Compound 76, 2-hydroxy-N′-(2-hydroxy-5-methoxy-benzylidene)-4-methoxy-benzohydrazide] |
| 15 | COc1ccc(/C=N/NC(=O)c2ccccc2O)c(O)c1 [Compound 81, 2-hydroxy-N′-(2-hydroxy-4-methoxy-benzylidene)benzohydrazide] |
| 15.1 | COc1ccc(O)c(/C=N/NC(=O)c2cc(OC)ccc2O)c1 [Compound 82, 2-hydroxy-N′-(2-hydroxy-5-methoxy-benzylidene)-5-methoxy-benzohydrazide] |
| 15.4 | COc1ccc(O)c(/C=N/NC(=O)c2ccccc2O)c1 [Compound 83, 2-hydroxy-N′-(2-hydroxy-5-methoxy-benzylidene)benzohydrazide] |
| 15.5 | COc1ccc(O)c(/C=N/NC(=O)c2cc(Cl)ccc2O)c1 [Compound 84, 5-chloro-2-hydroxy-N′-(2-hydroxy-5-methoxy-benzylidene)benzohydrazide] |
| 16 | CCOc1ccc(O)c(/C=N/NC(=O)c2ccccc2O)c1 [Compound 85, N′-(5-ethoxy-2-hydroxy-benzylidene)-2-hydroxy-benzohydrazide] |
| 26.2 | COc1ccc(O)c(/C=N/NC(=O)c2c(O)cccc2F)c1 [Compound 95, 2-fluoro-6-hydroxy-N′-(2-hydroxy-5-methoxybenzylidene)benzohydrazide] |
| 31.9 | COc1ccc(O)c(/C=N/NC(=O)c2cc(Br)ccc2O)c1 [Compound 98, 5-bromo-2-hydroxy-N′-(2-hydroxy-5-methoxybenzylidene)benzohydrazide] |
| 35.1 | COc1ccc(O)c(/C=N/NC(=O)c2cc([N+](=O)[O-])ccc2O)c1 [Compound 104, 2-hydroxy-N′-(2-hydroxy-5-methoxybenzylidene)-5-nitrobenzohydrazide] |
| 36.5 | COc1ccc(O)c(/C=N/NC(=O)c2cccc3cccc(O)c23)c1 [Compound 105, 8-hydroxy-N′-(2-hydroxy-5-methoxybenzylidene)-1-naphthohydrazide] |
| 42.3 | COc1ccc(O)c(/C=N/NC(=O)c2ccccc2N)c1 [Compound 110, 2-amino-N′-(2-hydroxy-5-methoxybenzylidene)benzohydrazide] |
